Tests used:
[1] = test system: obesity in non-depressed outpatients; test: Obesity Reduction Test: randomized double-blind comparison of venlafaxine and placebo capsules; assay type: in vivo, humans
Procedure: A randomized double-blind comparison of venlafaxine and placebo capsules was tested as a treatment for obesity in non-depressed outpatients. […] Each participant in the comparison weighed more than 20%, but less than 100%, above the mean value for sex, height and bone structure according to the 1983 Metropolitan Height and Weight Table. The women in the comparison of childbearing potential received a negative pregnancy test result and agreed to use medically acceptable forms of contraception throughout the period covered by the comparison.
Subsequently the dose was increased from 50 mg/day to 150 mg/day through study day 14. On study day 15 the dose was increased to 225 mg/day (3 tablets 3 times a day) and this dose was continued for the remainder of the 70 day study. The patients in both groups were also given instructions to decrease their food intake by 20% and to increase their exercise by the same amount. These directives were given to standardize dietary instructions and to try to prevent patients from starting “crash” diets or exercise programs. A specific diet was not prescribed.
Comparisons within groups were performed on changes from baseline weight and body mass index. Body mass index was computed according to the following formula: [formula]

norepinephrine uptake = conditions: cited from earlier work
dopamine reuptake = conditions: relative to serotonin and norepinephrine uptake; cited from earlier work
monoamine oxidase = conditions: cited from earlier work
histaminergic receptors = conditions: in vitro; cited from earlier work
adrenergic receptors = conditions: in vitro; cited from earlier work

With `COc1ccc(C(CN(C)C)C2(O)CCCCC2)cc1` (centres unmarked) [venlafaxine, 1-[2-(dimethylamino)-1-(4-methoxyphenyl)ethyl] cyclohexanol] as the compound, how does the “mean weight decreases and mean percent decreases from baseline, significance” value ([1]; beginning at week 1) read?
The value was “consistent statistically significant mean weight decreases and mean percent decreases from baseline beginning at week 1”.

And the “mean percent decrease from baseline (body weight)” value ([1]; week 10, venlafaxine up to 225 mg/day)?
Its value is 3.6%.

And the “mean decrease in body weight” value ([1]; week 10, venlafaxine up to 225 mg/day, change from baseline)?
The value was 7.5 lb.

What about the “inhibition of norepinephrine uptake” value (norepinephrine uptake) of the same compound?
The value was “potent inhibition”.

What about the “inhibition of dopamine reuptake” value (dopamine reuptake) of the same compound?
The value was “To a lesser degree, venlafaxine also inhibits dopamine reuptake”.

What about the “inhibitory activity on monoamine oxidase” value (monoamine oxidase) of the same compound?
The value was “no inhibitory activity”.

And the “affinity for histaminergic receptors” value (histaminergic receptors)?
The value was “virtually no affinity”.

And the “affinity for adrenergic receptors” value (adrenergic receptors)?
The value was “virtually no affinity”.
